Results from patent US20260365692A1, “COMPOSITIONS COMPRISING PROTEINS DISSOLVED IN FLUORINATED SOLVENTS, AND METHODS OF MAKING AND USING THE SAME” (priority 2022, published 2026).

Assays:
[1] = Protein activity after elevated temperature exposure (Example 4); format: physicochemical
Procedure: A group of enzyme proteins, β-Gal and Trypsin was chosen for this study. β-Gal and Trypsin were diluted in PBS or dispersed in PFOc at 1 μM and 10 μM, respectively. Next, a subset of samples was subjected to elevated temperature condition (90 °C) well beyond their native denaturation temperature for 30 minutes. After that, samples were allowed to cool down to room temperature before retrieval. For PFOc samples, proteins were extracted into PBS before performing the ensuing assays. To determine the enzymatic activity, an equal volume of protein samples was added to their substrates dissolved in PBS (4 mg/mL ONPG for β-Gal or 1 mg/mL BAEE for Trypsin). After incubation, ONPG and BAEE substrate conversions were measured by taking absorbance using a microplate reader at 420 nm or 400 nm, respectively. In case of intrinsic fluorescence, GFP was similarly prepared, and heat treated. After GFP samples were retrieved, fluorescent intensity was taken at λex=490 nm, λem=520 nm. The change in protein activity was presented by normalizing to spectrometric readings of each protein dissolved in PBS without being subjected to heat (room temperature). […] This supports the assertion that the fluorous coating and solvent environments, together, serve to constrain the conformational flexibility of the dispersed protein and, as a result, increase its melting temperature.

HepG2 cells = assay: HepG2 MTT viability assay (Example 2); format: cell-based, human; conditions: Homo sapiens, HepG2, 37 °C overnight
Procedure: FIG. 28 depicts a viability assay for HepG2 cells treated with two first generation compounds and two second generation compounds.
Next, viability assays were performed by seeding HepG2 (liver cancer cell line) onto 96 well plates and allowing the cells to adhere overnight. DMEM cell culture media containing various concentrations of each FTag compound were then added, and the plates were incubated at 37 °C overnight. The supernatant was then removed and MTT viability dyes were added to each well and allowed to convert for 2 hours. Dye absorbance for each condition was then compared to positive (20% DMSO) and negative (blank media) controls to calculate % viability (FIG. 28).

transferrin = transferrin (Bos taurus, UniProt Q29443); assay: Circular dichroism with PFNA, transferrin; parameters: species or system bovine
Source text: (§1) FIGS. 14A-14L depict circular dichroism spectra of Hb (FIG. 14A), GFP (FIG. 14B), BSA (FIG. 14C), β-Gal (FIG. 14D), rabbit serum IgG (FIG. 14E), transferrin (FIG. 14F), and urease (FIG. 14G) in the absence (black line) or presence (dashed lines) of PFNA. Increasing dash sequence indicated higher concentration of PFNA. FIG. 14H: Change in molar ellipticity at 216 nm (Δθ216) of PFNA-treated proteins, relative to native controls, as a function of increasing ligand concentration. FIG. 14I: Percentage change in secondary structural motifs of Hb, β-Gal and IgG between the native protein and 1 mM PFNA treated samples. β-sheet structures were further differentiated into parallel and antiparallel conformations. Hb, β-Gal and IgG were prioritized for analysis based on their significant spectral shift in the presence of 1 mM PFNA. FIGS. 14J-14L: Sensograms for BSA (FIG. 14J), β-gal (FIG. 14K), and IgG (FIG. 14L) showing relative response (R.U.) at 10, 25, 50, 75, and 100 μM.
(§2) To explore PFNA-mediated changes in protein structure, dose-response circular dichroism (CD) studies were performed (FIG. 14A-14G). […] Remarkably, these structural changes endured even at sub-stoichiometric PFNA:protein ratios (see 0.001 mM PFNA in […]; protein concentration was constant at 0.01 mM).

β-gal [2] = assay: Circular dichroism with PFNA, β-gal; conditions: 0.001-1 mM PFNA
Source text: as §1, §2

β-gal [3] = assay: Surface plasmon resonance, β-Gal; format: binding; conditions: after reference correction
Source text: as §1
To test this assertion, PFNA binding to three exemplary proteins, BSA, β-Gal and IgG, was studied via isothermal titration calorimetry (ITC) and surface plasmon resonance (SPR) techniques. […] SPR analysis yielded similar results, with sensorgrams (FIGS. 14J-14L) that diverged from a simple 1:1 ligand-protein model. […]

A549 cells = assay: Annexin V/propidium iodide co-staining of A549 cells; format: cell-based, human; conditions: PFNA
Procedure: FIGS. 20A-20D depicts annexin-V/PI co-staining of A549 cells treated without or with PFNA at 2 and 24 hours. FIGS. 20A-20C: Flow cytometry scatter plots. FIG. 20D: quadrant data comparing the population of unaffected cells (native), to cells displaying lipid translocation (Lip. Tran.) membrane permeabilization (Mem. Perm.), or both.
The ability of PFNA to modulate protein uptake may be explained by the reported anchorage of fluorinated amphiphiles within cell membranes to alter lipid bilayer fluidity and liquid-crystalline phase transitions. To test this assertion, and inform the interpretation of the protein uptake results, the annexin V (AV)/propidium iodide (PI) assay, commonly used to study apoptosis, was repurposed to explore membrane dynamics following PFNA exposure (FIGS. 20A-20D). Here, AV bound phosphatidylserine lipids exposed via inner-to-outer leaflet translocation, while PI positively labeled cells with permeabilized membranes. Comparing dye uptake at early (2 hour) and late (24 hour) PFNA exposure times allowed interpretation of lipid translocation (AV^+, PI^−), membrane permeabilization (AV^−, PI^+), both (AV^+, PI^+), or neither (AV^−, PI^−). […]

Sequence of transferrin (Q29443 20-704): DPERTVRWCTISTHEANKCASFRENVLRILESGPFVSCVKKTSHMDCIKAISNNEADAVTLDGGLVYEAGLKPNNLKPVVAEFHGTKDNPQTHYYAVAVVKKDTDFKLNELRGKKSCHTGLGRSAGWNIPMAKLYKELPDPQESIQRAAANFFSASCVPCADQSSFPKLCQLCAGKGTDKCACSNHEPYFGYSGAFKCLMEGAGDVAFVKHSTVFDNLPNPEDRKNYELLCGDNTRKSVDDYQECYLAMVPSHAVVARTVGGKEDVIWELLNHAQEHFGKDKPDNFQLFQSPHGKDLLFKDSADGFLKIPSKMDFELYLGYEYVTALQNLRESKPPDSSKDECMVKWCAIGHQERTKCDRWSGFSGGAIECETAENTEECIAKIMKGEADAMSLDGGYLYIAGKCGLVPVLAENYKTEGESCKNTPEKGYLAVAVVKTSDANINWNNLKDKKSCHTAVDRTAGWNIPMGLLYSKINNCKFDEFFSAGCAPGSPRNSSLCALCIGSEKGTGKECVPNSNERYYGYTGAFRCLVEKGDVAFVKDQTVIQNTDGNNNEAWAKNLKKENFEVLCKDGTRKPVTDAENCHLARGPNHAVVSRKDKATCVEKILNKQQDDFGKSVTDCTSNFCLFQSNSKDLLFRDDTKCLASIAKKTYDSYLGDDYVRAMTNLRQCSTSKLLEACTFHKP

Molecule | change in activity after heating ([1]; PFOc dispersed, 90 °C for 30 minutes) | loss of bioactivity after heating ([1]; saline, 90 °C for 30 minutes) | IC50 (HepG2 cells) | CD structural profile, transferrin (transferrin) | CD structural change, β-gal (β-gal [2]) | SPR response (β-gal [3]) | retention of bioactivity / function at elevated temperature ([1]; proteins dispersed into fluorous solvent using the dispersant, up to 90 °C) | lipid translocation (AV+, PI−) (A549 cells; 2 hours) | lipid translocation and membrane permeability (AV+, PI+) (A549 cells; 24 hours)
β-Gal: β-Galactosidase (β-Gal), dissolved in PBS/saline or dispersed in PFOc | no statistically significant change in activity | > 90% | – | – | – | – | – | – | –
O=C(O)C(F)(F)C(F)(F)C(F)(F)C(F)(F)C(F)(F)C(F)(F)C(F)(F)C(F)(F)F [Compound 7, perfluoronanonic acid] | – | – | 540 µM | remained largely unchanged | marked increase in β-sheet content | negative responses | structured and functional at temperatures as high as 90 °C | elevated | increased
